Among the data in patent US10640534B2 (Agios Pharmaceuticals, Inc., priority 2012, dated 2020) are IC50 values, retold here.

The test system of the assay is U87MG cells. The experiment in a line: Cellular assay, inhibition of 2-HG production in U87MG cells. It is filed as cell-based. Conditions: Homo sapiens, U-87 MG, 48 h. The procedure: Cells (HT1080 or U87MG) are grown in T125 flasks in DMEM containing 10% FBS, 1× penicillin/streptomycin and 500 ug/mL G418 (present in U87MG cells only). They are harvested by trypsin and seeded into 96 well white bottom plates at a density of 5000 cell/well in 100 ul/well in DMEM with 10% FBS. […] Cells are incubated overnight at 37° C. in 5% CO2. The next day test compounds are made up at 2× the final concentration and 100 ul are added to each cell well. The final concentration of DMSO is 0.2% and the DMSO control wells are plated in row G. The plates are then placed in the incubator for 48 hours. […] The cell plate is placed back in the incubator for another 24 hours. At 72 hours post compound addition, 10 mL/plate of Promega Cell Titer Glo reagent is thawed and mixed. The cell plate is removed from the incubator and allowed to equilibrate to room temperature. Then 100 ul of Promega Cell Titer Glo reagent is added to each well of media. The cell plate is then placed on an orbital shaker for 10 minutes and then allowed to sit at room temperature for 20 minutes. The plate is then read for luminescence with an integration time of 500 ms.

`N#Cc1cc(F)cc(N(C(=O)[C@@H]2CCC(=O)N2c2cc(C#N)ccn2)[C@H](C(=O)NC2CC(F)(F)C2)c2ccccc2)c1` [Compound 211, (S)—N-(3-Cyano-5-fluorophenyl)-1-(4-cyanopyridin-2-yl)-N—((S)-2-(3,3-difluorocyclobutyl-amino)-2-oxo-1-phenylethyl)-5-oxopyrrolidine-2-carboxamide]: the IC50 (usually the midpoint of a concentration-inhibition curve) is less than 100 nM.

The molecule `N#Cc1cc(F)cc(N(C(=O)[C@@H]2CCC(=O)N2c2cc(C#N)ccn2)[C@H](C(=O)NC2CCC(F)(F)CC2)c2ccccc2Cl)c1` [Compound 184, (S)—N—((S)-1-(2-Chlorophenyl)-2-(4,4-difluorocyclohexylamino)-2-oxoethyl)-N-(3-cyano-5-fluorophenyl)-1-(4-cyanopyridin-2-yl)-5-oxopyrrolidine-2-carboxamide] returned an IC50 of less than 100 nM.

The molecule `CN1C[C@@H](C(=O)N(c2cccc(F)c2)C(C(=O)NC2CC(F)(F)C2)c2ccccc2Cl)N(c2cc(C#N)ccn2)C1=O` (stereo partly drawn) [Compound 79, (4S)—N-(1-(2-chlorophenyl)-2-((3,3-difluorocyclobutyl)amino)-2-oxoethyl)-3-(4-cyanopyridin-2-yl)-N-(3-fluorophenyl)-1-methyl-2-oxoimidazolidine-4-carboxamide] returned an IC50 of less than 100 nM.

Consider `N#Cc1ccnc(N2C(=O)NC[C@H]2C(=O)N(c2cccc(F)c2)[C@H](C(=O)NC2CC(F)(F)C2)c2ccccc2Cl)c1` [Compound 80, (S)—N—((S)-1-(2-chlorophenyl)-2-(3,3-difluorocyclobutylamino)-2-oxoethyl)-3-(4-cyanopyridin-2-yl)-N-(3-fluorophenyl)-2-oxoimidazolidine-4-carboxamide], for which the half-maximal inhibitory concentration (IC50) is less than 100 nM.

For the molecule `CC(C)(O)c1cccc(N(C(=O)[C@@H]2CCC(=O)N2c2cc(C#N)ccn2)[C@H](C(=O)NC2CC(F)(F)C2)c2ccccc2Cl)c1` [Compound 179, (S)—N—((S)-1-(2C)-2-((3,3-difluorocyclobutyl)amino)-2-oxoethyl)-1-(4-cyanopyridin-2-yl)-N-(3-(2-hydroxypropan-2-yl)phenyl)-5-oxopyrrolidine-2-carboxamide], the IC50 is less than 100 nM.

The molecule `O=C(NC1CC(F)(F)C1)C(c1ccccc1Cl)N(C(=O)[C@@H]1CCCC(=O)N1c1ncccn1)c1cccc(F)c1` (stereo in doubt) [Compound 20, (S)—N—((R)-1-(2-Chloro-phenyl)-2-((3,3-difluorocyclobutyl)amino)-2-oxoethyl)-N-(3-fluoro-phenyl)-6-oxo-1-(pyrimidin-2-yl)piperidine-2-carboxamide] had an IC50 of 100 to 500 nM.

The molecule `N#Cc1ccnc(N2C(=O)CC[C@H]2C(=O)N(c2cccc(CO)c2)[C@H](C(=O)NC2CC(F)(F)C2)c2ccccc2Cl)c1` [Compound 131, (S)—N—((S)-1-(2-Chlorophenyl)-2-(3,3-difluorocyclobutylamino)-2-oxoethyl)-1-(4-cyanopyridin-2-yl)-N-(3-(hydroxymethyl)phenyl)-5-oxopyrrolidine-2-carboxamide] returned an IC50 of less than 100 nM.

Take `C[C@]1(O)C[C@@H](C(=O)N(c2cccc(F)c2)C(C(=O)NC2CC(F)(F)C2)c2ccccc2Cl)N(c2cc(C#N)ccn2)C1=O` (single isomer, unassigned) [Compound 183]: the IC50 is less than 100 nM.

As to `N#Cc1ccnc(N2C(=O)[C@H](O)C[C@H]2C(=O)N(c2cc(F)cc(F)c2)[C@H](C(=O)NC2CCC(F)(F)CC2)c2ccccc2Cl)n1` [Compound 127, (2S,4R)—N—((S)-1-(2-Chlorophenyl)-2-(4,4-difluorocyclohexylamino)-2-oxoethyl)-1-(4-cyanopyrimidin-2-yl)-N-(3,5-difluorophenyl)-4-hydroxy-5-oxopyrrolidine-2-carboxamide], the IC50 is less than 100 nM.

The molecule `CN(C)S(=O)(=O)c1cccc(N(C(=O)[C@@H]2CCC(=O)N2c2cc(C#N)ccn2)[C@H](C(=O)NC2CC(F)(F)C2)c2ccccc2Cl)c1` [Compound 156, (S)—N—((S)-1-(2-Chlorophenyl)-2-(3,3-difluorocyclobutylamino)-2-oxoethyl)-1-(4-cyanopyridin-2-yl)-N-(3-(N,N-dimethylsulfamoyl)phenyl)-5-oxopyrrolidine-2-carboxamide] gave an IC50 of less than 100 nM.

Regarding `N#Cc1ccnc(N2C(=O)[C@H](O)C[C@H]2C(=O)N(c2cccc(F)c2)[C@H](C(=O)NC2CC(F)(F)C2)c2ccccc2Cl)c1` [Compound 113, (2S,4R)—N—((S)-1-(2-Chlorophenyl)-2-(3,3-difluorocyclobutylamino)-2-oxoethyl)-1-(4-cyanopyridin-2-yl)-N-(3-fluorophenyl)-4-hydroxy-5-oxopyrrolidine-2-carboxamide], the IC50 is less than 100 nM.

Regarding `N#Cc1ccnc(N2C(=O)[C@H](O)C[C@H]2C(=O)N(c2cc(F)cc(F)c2)[C@@H](C(=O)NC2CCC(F)(F)CC2)c2ccccc2Cl)c1` [Compound 124, (2S,4R)—N—((R)-1-(2-Chlorophenyl)-2-(4,4-difluorocyclohexylamino)-2-oxoethyl)-1-(4-cyanopyridin-2-yl)-N-(3,5-difluorophenyl)-4-hydroxy-5-oxopyrrolidine-2-carboxamide], the IC50 is less than 100 nM.

`N#Cc1ccnc(N2C(=O)CC[C@H]2C(=O)N(c2cc(F)cc(F)c2)[C@H](C(=O)NC2CC(F)(F)C2)c2ccccc2Cl)c1` [Compound 71, (S)—N—((S)-1-(2-Chlorophenyl)-2-((3,3-difluorocyclobutyl)amino)-2-oxoethyl)-1-(4-cyanopyridin-2-yl)-N-(3,5-difluorophenyl)-5-oxopyrrolidine-2-carboxamide] registered an IC50 of less than 100 nM.

As to `N#Cc1ccnc(N2C(=O)CC[C@H]2C(=O)N(c2cncc(F)c2)[C@H](C(=O)NC2CC(F)(F)C2)c2ccccc2)c1` [Compound 147, (S)-1-(4-Cyanopyridin-2-yl)-N—((S)-2-((3,3-difluorocyclobutyl)amino)-2-oxo-1-phenylethyl)-N-(5-fluoropyridin-3-yl)-5-oxopyrrolidine-2-carboxamide], the IC50 is less than 100 nM.

Turning to `CCOC(=O)CN1C[C@@H](C(=O)N(c2cccc(F)c2)C(C(=O)NC2CC(F)(F)C2)c2ccccc2Cl)N(c2nccc(C#N)n2)C1=O` (stereo partly drawn) [Compound 111, Ethyl 2-((4S)-4-((1-(2-chlorophenyl)-2-((3,3-difluorocyclobutyl)amino)-2-oxoethyl)(3-fluorophenyl)carbamoyl)-3-(4-cyanopyrimidin-2-yl)-2-oxoimidazolidin-1-yl)acetate], the IC50 was less than 100 nM.

Take `N#Cc1ccnc(N2C(=O)CC[C@H]2C(=O)N(c2cccc(OC(F)F)c2)[C@H](C(=O)NC2CC(F)(F)C2)c2ccccc2Cl)c1` (single isomer, unassigned) [Compound 181]: the IC50 is less than 100 nM.

For the molecule `CN(C)c1cccc(N(C(=O)[C@@H]2CCC(=O)N2c2cc(C#N)ccn2)[C@H](C(=O)NC2CC(F)(F)C2)c2ccccc2Cl)c1` [Compound 161, (S)—N—((S)-1-(2-Chlorophenyl)-2-(3,3-difluorocyclobutylamino)-2-oxoethyl)-1-(4-cyanopyridin-2-yl)-N-(3-(dimethylamino)phenyl)-5-oxopyrrolidine-2-carboxamide], the IC50 was less than 100 nM.

`N#Cc1ccnc(N2C(=O)CC[C@H]2C(=O)N(c2cncc(F)c2)[C@H](C(=O)NC2CCC(F)(F)CC2)c2ccccc2Cl)c1` [Compound 193, (S)—N—((S)-1-(2-Chlorophenyl)-2-(4,4-difluorocyclohexylamino)-2-oxoethyl)-1-(4-cyanopyridin-2-yl)-N-(5-fluoropyridin-3-yl)-5-oxopyrrolidine-2-carboxamide] returned an IC50 of less than 100 nM.

`N#Cc1ccnc(N2C(=O)CC[C@H]2C(=O)N(c2cc(F)cc(S(N)(=O)=O)c2)[C@H](C(=O)NC2CC(F)(F)C2)c2ccccc2Cl)c1` [Compound 158, (2S)—N-(1-(2-chlorophenyl)-2-(3,3-difluorocyclobutylamino)-2-oxo-ethyl)-1-(4-cyanopyridin-2-yl)-N-(3-fluoro-5-sulfamoylphenyl)-5-oxopyrrolidine-2-carboxamide] gave an IC50 of less than 100 nM.

As to `N#Cc1ccnc(N2C(=O)CC[C@H]2C(=O)N(c2cc(F)cc(F)c2)[C@H](C(=O)NC2CC(F)(F)C2)c2cc(Cl)ccc2Cl)c1` [Compound 201, (S)-1-(4-Cyanopyridin-2-yl)-N—((S)-1-(2,5-dichlorophenyl)-2-((3,3-difluorocyclobutyl)-amino)-2-oxoethyl)-N-(3,5-difluorophenyl)-5-oxopyrrolidine-2-carboxamide], the IC50 was less than 100 nM.

With `N#Cc1ccnc(N2C(=O)OC[C@H]2C(=O)N(c2cccc(F)c2)[C@H](C(=O)NC2CC(F)(F)C2)c2ccccc2Cl)c1` [Compound 77, (S)—N—((S)-1-(2-Chlorophenyl)-2-(3,3-difluorocyclobutylamino)-2-oxoethyl)-3-(4-cyanopyridin-2-yl)-N-(3-fluorophenyl)-2-oxooxazolidine-4-carboxamide], the IC50 was less than 100 nM.

Consider `CC(C)(C)OC(=O)N1CC(=O)N(c2nccc(C#N)n2)[C@H](C(=O)N(c2cc(F)cc(F)c2)[C@H](C(=O)NC2CC(F)(F)C2)c2ccccc2Cl)C1` [Compound 98, (3S)-tert-butyl 3-((1-(2-chlorophenyl)-2-((3,3-difluorocyclobutyl)amino)-2-oxoethyl)(3,5-difluorophenyl)carbamoyl)-4-(4-cyanopyrimidin-2-yl)-5-oxopiperazine-1-carboxylate], for which the IC50 is less than 100 nM.
